Measured values taken from US20100022481A1, “Drug Carriers, Their Synthesis, and Methods of Use Thereof” (priority 2006, published 2010).
Each block holds one compound with its values, some of them ahead of it.

Columns and labels:
[1] = system: rat mandible; assay: Bilateral rat mandible model, bone growth and inflammation, histomorphometry; format: in vivo, Female Sprague Dawley rats; conditions: for new bone growth / bone anabolic effect (in words): one injection at rat mandible; for New Bone Area (mm^2 ± SEM) / New Bone Width-1 (mm ± SEM) / New Bone Width-3 (mm ± SEM): Table 1, pairs tested on contralateral sides
[2] = Phase solubility of dexamethasone or PGE1 in the presence of ALN-CD
[3] = Binding potential of ALN-CD on HA; conditions: rhodamine B label; 10 minutes with HA at room temperature, washed with H2O 5-10 times
Procedure: 20 mg rhodamine B labeled ALN-CD or CD and 1 mg rhodamine B were dissolved in 0.5 ml water separately, and 100 mg of hydroxyapatite (HA) was added. The mixture was then allowed to stir gently for 10 minutes at room temperature. HA was recovered by centrifugation (10,000 rpm, 2 minutes), then washed with H2O 5-10 times to remove unbound compounds. The HA was allowed to dry under vacuum at room temperature.

[4] = 50 μl of 400 mg/mL ALN-CD or 50 μl of 81 mg/ml ALN
[5] = one injection, contralateral sides, 24 days

Compound: CCCCC[C@H](O)/C=C/[C@H]1[C@H](O)CC(=O)[C@@H]1CCCCCCC(=O)O [PGE1, prostaglandin E1]
new bone growth / bone anabolic effect (in words) ([1]; 24 days): negligible

Compound: NCCCC(O)(P(=O)(O)O)P(=O)(O)O [alendronate]
cases with new bone on distant areas of the mandible (e.g., the medial surface) [1, 4]: 8 of 8
cases with new bone on the lateral surface of the mandible (location of injection) [1, 4]: 5 of 8
New Bone Area (mm^2 ± SEM) ([1]; 24 days): 0.61 ± 0.12 mm^2
New Bone Width-1 (mm ± SEM) ([1]; 24 days): 0.14 ± 0.05 mm
New Bone Width-3 (mm ± SEM) ([1]; 24 days): 0.24 ± 0.11 mm
new bone area ([1]; equivalent amounts of ALN: 50 μl of 400 mg/mL ALN-CD or 50 μl of 81 mg/ml ALN): 0.61 ± 0.12 mm^2
new bone growth / bone anabolic effect (in words) ([1]; 24 days): moderate bone anabolic effect

aqueous solubility as a function of the concentration of ALN-CD ([2]; ALN-CD 0 to 10 mM, 25° C., 3 days): increases
apparent 1:1 stability constant Kc ([2]; complex with ALN-CD, water, 25° C.): 2570 M⁻¹
solubility diagram type according to Higuchi and Connors ([2]; with ALN-CD): AL type
Compound: C[C@@H]1C[C@H]2[C@@H]3CCC4=CC(=O)C=C[C@]4(C)[C@@]3(F)[C@@H](O)C[C@]2(C)[C@@]1(O)C(=O)CO [dexamethasone]

color of HA after washings (binding to the HA surface) [3]: disappeared
Compound: CCN(CC)c1ccc2c(-c3ccccc3C(=O)O)c3ccc(=[N+](CC)CC)cc-3oc2c1.[Cl-] [rhodamine B]

Compound: hydroxypropyl(HP)-β-CD [HP-β-CD]
New Bone Area (mm^2 ± SEM) ([1]; 24 days): 0.25 ± 0.08 mm^2
New Bone Width-1 (mm ± SEM) ([1]; 24 days): 0.05 ± 0.02 mm
New Bone Width-3 (mm ± SEM) ([1]; 24 days): 0.19 ± 0.11 mm
increase in new bone width [1, 5]: 0.07±0.10 mm
percentage of osteoblasts on the lateral periosteal surface [1, 5]: 7.3%
